This is an account of results in US20090304803A1, “Compositions and methods relating to target-specific photodynamic therapy” (The General Hospital Corporation, priority 2005, published 2009).

The subject of one data set is HER2. The conditions noted are these: cited from earlier work.
The target in another data set is T1, ErbB3 receptor (Homo sapiens, UniProt P21860).
T1 construct: endogenous in cells; host or cells: OVCAR3 (target); PA-1 (non-expressing control)
Put plainly: ErbB3-specific aptamer localization in target and non-target cells, confocal microscopy. The data set is classed as cell-based. The conditions noted are these: 2 uM, 15 minutes at 4° C. then 20 minutes at 37° C. The protocol:
Both ErbB3-expressing cells (OVCAR3) and non-expressing cells (PA-1) were incubated with the ErbB3-specific aptamer and the cells were imaged using a confocal microscope. OVCAR3 (target) and PA-1 (non-target) cells were incubated with 2 uM ErbB3 specific aptamer (tagged on the 5′ end with Fluoroscein) for 15 minutes at 4° C. and then for 20 minutes at 37° C. The cells were then imaged using a confocal laser scanning microscope with 488 nm excitation. The fluorescence was collected using a 515 nm long pass filter.

In a further data set the test system is MCF7 cells. The conditions noted are these: cited from earlier work.
For data set [1] the following is noted: water; cited from earlier work.

T1 sequence (P21860 20-1342): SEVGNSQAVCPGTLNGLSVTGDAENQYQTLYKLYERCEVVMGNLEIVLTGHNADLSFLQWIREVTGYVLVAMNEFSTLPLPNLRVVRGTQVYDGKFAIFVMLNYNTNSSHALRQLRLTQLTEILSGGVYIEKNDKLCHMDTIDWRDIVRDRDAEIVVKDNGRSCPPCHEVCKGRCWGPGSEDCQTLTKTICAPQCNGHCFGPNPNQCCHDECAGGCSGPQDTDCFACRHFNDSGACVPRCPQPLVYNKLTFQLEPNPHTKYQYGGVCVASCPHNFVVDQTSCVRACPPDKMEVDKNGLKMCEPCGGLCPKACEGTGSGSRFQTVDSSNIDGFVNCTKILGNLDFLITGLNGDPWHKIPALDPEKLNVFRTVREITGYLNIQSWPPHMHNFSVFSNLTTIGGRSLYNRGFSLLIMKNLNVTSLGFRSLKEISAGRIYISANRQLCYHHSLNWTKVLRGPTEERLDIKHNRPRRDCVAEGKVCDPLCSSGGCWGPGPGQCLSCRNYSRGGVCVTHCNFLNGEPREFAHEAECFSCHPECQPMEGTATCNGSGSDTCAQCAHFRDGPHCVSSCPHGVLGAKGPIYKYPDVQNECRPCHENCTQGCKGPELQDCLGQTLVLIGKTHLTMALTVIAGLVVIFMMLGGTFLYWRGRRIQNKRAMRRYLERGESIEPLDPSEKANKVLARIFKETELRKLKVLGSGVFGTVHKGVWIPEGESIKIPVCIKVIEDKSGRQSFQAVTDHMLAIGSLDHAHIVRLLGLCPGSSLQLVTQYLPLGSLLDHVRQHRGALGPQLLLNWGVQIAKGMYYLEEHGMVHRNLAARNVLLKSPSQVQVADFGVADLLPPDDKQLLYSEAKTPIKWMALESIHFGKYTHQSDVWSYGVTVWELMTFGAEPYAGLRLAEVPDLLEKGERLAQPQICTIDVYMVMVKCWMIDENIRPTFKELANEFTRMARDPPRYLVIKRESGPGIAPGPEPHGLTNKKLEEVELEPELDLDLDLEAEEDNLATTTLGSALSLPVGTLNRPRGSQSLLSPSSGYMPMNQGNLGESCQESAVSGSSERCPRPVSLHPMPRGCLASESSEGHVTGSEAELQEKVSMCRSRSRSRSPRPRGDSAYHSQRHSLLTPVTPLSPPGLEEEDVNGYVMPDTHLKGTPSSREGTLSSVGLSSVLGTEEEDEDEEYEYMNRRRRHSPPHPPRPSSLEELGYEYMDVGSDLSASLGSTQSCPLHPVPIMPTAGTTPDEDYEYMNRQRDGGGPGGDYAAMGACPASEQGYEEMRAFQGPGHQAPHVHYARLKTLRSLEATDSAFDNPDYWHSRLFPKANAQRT

For “ErbB3-specific aptamer: aptamer that recognizes the ErbB3 receptor, sequence from Chen et al., PNAS 2003; labeled at 5′ end with Fluoroscein (DNA CAGCGAAAGUUGCGUAUGGGUCACAUCGCAGGCACAUGUCAUCUGGGCG; 5' fluorescein label, chemistry of the aptamer otherwise not given here)”, the “hrg-dependent tyrosine phosphorylation of HER2” value in the data set with HER2 is reported as “inhibited”. The “aptamer localization, OVCAR3 (target) versus PA-1 (non-target)” value in the data set with ErbB3 receptor is reported as “localized specifically to the OVCAR3 cell line”. Moreover, the “hrg-induced growth response of MCF7 cells” value in the data set with MCF7 cells is on record as “inhibited”.

With “chlorin e6 monoethylendiamine monamide [CMA]”, the solubility result in data set [1] is “soluble in water”.
